Experimental data reported in US10533002B2, “Thiophene- or furan-substituted isothiazoline compounds as pesticides” (BOEHRINGER INGELHEIM ANIMAL HEATLH USA INC., priority 2013, dated 2020).

Legend:
[1] = test system: Tobacco Budworm (Heliothis virescens); test: Tobacco budworm microtiter diet test (B.7); type: in vivo; details: 120 h, egg and larval mortality, sprayed insect diet, 5 days, read-out: mortality in comparison with untreated controls
Protocol: B.7 Tobacco Budworm (Heliothis virescens)
For evaluating control of tobacco budworm (Heliothis virescens) the test unit consisted of 96-well-microtiter plates containing an insect diet and 15-25 H. virescens eggs. The compounds were formulated using a solution containing 75% v/v water and 25% v/v DMSO. Different concentrations of formulated compounds were sprayed onto the insect diet at 10 μl, using a custom built micro atomizer, at two replications.
After application, microtiter plates were incubated at about 28±1° C. and about 80±5% relative humidity for 5 days. Egg and larval mortality was then visually assessed.

[2] = test system: Boll Weevil (Anthonomus grandis); test: Boll weevil microtiter diet test (B.8); type: in vivo; details: 120 h, egg and larval mortality, sprayed insect diet, 5 days, read-out: mortality in comparison with untreated controls
Protocol: B.8 Boll Weevil (Anthonomus grandis)
For evaluating control of boll weevil (Anthonomus grandis) the test unit consisted of 96-well-microtiter plates containing an insect diet and 5-10 A. grandis eggs.
The compounds were formulated using a solution containing 75% v/v water and 25% v/v DMSO. Different concentrations of formulated compounds were sprayed onto the insect diet at 5 μl, using a custom built micro atomizer, at two replications.
After application, microtiter plates were incubated at about 25±1° C. and about 75±5% relative humidity for 5 days. Egg and larval mortality was then visually assessed.

[3] = test system: Green Peach Aphid (Myzus persicae); test: Green peach aphid artificial diet systemic test (B.2); type: in vivo; details: 72 h, adult aphids on treated artificial diet, 3 days, read-out: mortality in comparison with untreated controls
From the text: B.2 Green Peach Aphid (Myzus persicae)
For evaluating control of green peach aphid (Myzus persicae) through systemic means the test unit consisted of 96-well-microtiter plates containing liquid artificial diet under an artificial membrane.
The compounds were formulated using a solution containing 75% v/v water and 25% v/v DMSO. Different concentrations of formulated compounds were pipetted into the aphid diet, using a custom built pipetter, at two replications.
After application, 5-8 adult aphids were placed on the artificial membrane inside the microtiter plate wells. The aphids were then allowed to suck on the treated aphid diet and incubated at about 23±1° C. and about 50±5% relative humidity for 3 days. Aphid mortality and fecundity was then visually assessed.

[4] = test system: Vetch Aphid (Megoura viciae); test: Vetch aphid broad bean leaf disk test (B.6); type: in vivo; details: foliar, 120 h, adult aphids on sprayed broad bean leaf disks, 5 days, read-out: mortality in comparison with untreated controls
Protocol: B.6 Vetch Aphid (Megoura viciae)
For evaluating control of vetch aphid (Megoura viciae) through contact or systemic means the test unit consisted of 24-well-microtiter plates containing broad bean leaf disks.
The compounds were formulated using a solution containing 75% v/v water and 25% v/v DMSO. Different concentrations of formulated compounds were sprayed onto the leaf disks at 2.5 μl, using a custom built micro atomizer, at two replications. After application, the leaf disks were air-dried and 5-8 adult aphids placed on the leaf disks inside the microtiter plate wells. The aphids were then allowed to suck on the treated leaf disks and incubated at about 23±1° C. and about 50±5% relative humidity for 5 days. Aphid mortality and fecundity was then visually assessed.

[5] = test system: Mediterranean Fruitfly (Ceratitis capitata); test: Mediterranean fruitfly microtiter diet test (B.3); details: 120 h, read-out: mortality in comparison with untreated controls
[6] = test system: Diamond Back Moth (Plutella xylostella); test: Diamond back moth leaf-dip test (B.1); type: in vivo; details: cabbage leaves dipped, 3rd instar larvae, 72 hours after treatment, read-out: mortality in comparison with untreated controls
Protocol: B.1 Diamond Back Moth (Plutella xylostella)
The active compound was dissolved at the desired concentration in a mixture of 1:1 (vol:vol) distilled water:aceteone. Surfactant (Kinetic HV) was added at a rate of 0.01% (vol/vol). The test solution was prepared at the day of use.
Leaves of cabbage were dipped in test solution and air-dried. Treated leaves were placed in petri dishes lined with moist filter paper and inoculated with ten 3rd instar larvae. Mortality was recorded 72 hours after treatment. Feeding damages were also recorded using a scale of 0-100%.

[7] = test system: Southern Armyworm (Spodoptera eridania); test: Southern armyworm lima bean foliar spray test (B.5); type: in vivo; details: 96 h, larvae on sprayed lima bean plants, 4 days after treatment, read-out: mortality in comparison with untreated controls
Protocol: B.5 Southern Armyworm (Spodoptera eridania)
The active compounds were formulated by a Tecan liquid handler in 100% cyclohexanone as a 10,000 ppm solution supplied in tubes. The 10,000 ppm solution was serially diluted in 100% cyclohexanone to make interim solutions. These served as stock solutions for which final dilutions were made by the Tecan in 50% acetone:50% water (v/v) into 5 or 10 ml glass vials. A nonionic surfactant (Kinetic®) was included in the solution at a volume of 0.01% (v/v). The vials were then inserted into an automated electrostatic sprayer equipped with an atomizing nozzle for application to plants/insects.
Lima bean plants (variety Sieva) were grown 2 plants to a pot and selected for treatment at the 1st true leaf stage. Test solutions were sprayed onto the foliage by an automated electrostatic plant sprayer equipped with an atomizing spray nozzle. The plants were dried in the sprayer fume hood and then removed from the sprayer. Each pot was placed into perforated plastic bags with a zip closure. About 10 to 11 armyworm larvae were placed into the bag and the bags zipped closed. […] Mortality and reduced feeding were assessed 4 days after treatment, compared to untreated control plants.

O=C(O)c1sc(C2=NSC(c3cc(Cl)c(F)c(Cl)c3)(C(F)(F)F)C2)cc1C(F)(F)F (stereo not shown) [Compound 1-9, 5-[5-(3,5-Dichloro-4-fluoro-phenyl)-5-(trifluoromethyl)-4H-isothiazol-3-yl]-3-(trifluoromethyl)-thiophene-2-carboxylic acid]
≥ 75%: mortality at 2500 ppm [1] | mortality at 2500 ppm [2]

O=C(NCc1ncccn1)c1sc(C2=NSC(c3cc(Cl)c(F)c(Cl)c3)(C(F)(F)F)C2)cc1C(F)(F)F (stereo not shown) [Compound 1-12, 5-[5-(3,5-Dichloro-4-fluoro-phenyl)-5-(trifluoromethyl)-4H-isothiazol-3-yl]-N-(pyrimidin-2-ylmethyl)-3-(trifluoromethyl)thiophene-2-carboxamide]
≥ 75%: mortality at 2500 ppm [3] | mortality at 2500 ppm [4] | mortality at 2500 ppm [1] | mortality at 2500 ppm [2] | mortality at 2500 ppm [5]

Cc1cc(C2=NSC(c3cc(Cl)c(Cl)c(Cl)c3)(C(F)(F)F)C2)sc1C(=O)NCC(F)(F)F (stereo not shown) [Compound 1-7, 3-Methyl-5-[5-(3,4,5-trichlorophenyl)-5-(trifluoromethyl)-4H-isothiazol-3-yl]-N-(2,2,2-trifluoroethyl)thiophene-2-carboxamide]
≥ 75%: mortality at 500 ppm [6] | mortality at 2500 ppm [4] | mortality at 2500 ppm [1] | mortality at 2500 ppm [2] | mortality at 2500 ppm [5]

Cc1cc(C2=NSC(c3cc(Cl)c(Cl)c(Cl)c3)(C(F)(F)F)C2)sc1C(=O)OC(C)(C)C (stereo not shown) [Compound 1-1, tert-Butyl 3-methyl-5-[5-(3,4,5-trichlorophenyl)-5-(trifluoromethyl)-4H-isothiazol-3-yl]thiophene-2-carboxylate]
≥ 75%: mortality at 300 ppm [7]
